Results as given in the supplement of paper PMC10307832.

Experiments:
Test in all cases: relative viability (nuclei count vs DMSO), 5 days (fraction); higher = more cells survive
EMC-BAC-2 = system: EMC-BAC-2
Procedure, shortened: (§1)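 After 5 days of treatment, lung cancer cells in 1536-well plates were fixed and stained in a single step (final 0.05% Triton X-100, 1% formaldehyde, 1 ug/ml Hoechst) and their nuclei counted on 4× images. Treatment had been applied by pin tool the day after seeding as one drug alone or as a fixed anchor-drug dose with five library-drug doses (not always all listed) in √10 steps. Relative viability is the nuclei count of treated wells divided by that of vehicle wells, and values are medians of duplicate plates.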

SK-MES-1 = system: SK-MES-1
Procedure, shortened: as §1

NCI-H3122 = system: NCI-H3122
Procedure, shortened: as §1

NCI-H727 = system: NCI-H727
Procedure, shortened: as §1

ABC-1 = system: ABC-1
Procedure, shortened: as §1

NCI-H322M = system: NCI-H322M
Procedure, shortened: as §1

NCI-H2009 = system: NCI-H2009
Procedure, shortened: as §1

LK-2 = system: LK-2
Procedure, shortened: as §1

HOP-62 = system: HOP-62
Procedure, shortened: as §1

NCI-H1944 = system: NCI-H1944
Procedure, shortened: as §1

NCI-H2228 = system: NCI-H2228
Procedure, shortened: as §1

A-427 = system: A-427
Procedure, shortened: as §1

SW 1573 = system: SW 1573
Procedure, shortened: as §1

NCI-H2170 = system: NCI-H2170
Procedure, shortened: as §1

NCI-H596 = system: NCI-H596
Procedure, shortened: as §1

PC-3 [JPC-3] = system: PC-3 [JPC-3]
Procedure, shortened: as §1

LXF-289 = system: LXF-289
Procedure, shortened: as §1

NCI-H1792 = system: NCI-H1792
Procedure, shortened: as §1

HARA = system: HARA
Procedure, shortened: as §1

NCI-H1993 = system: NCI-H1993
Procedure, shortened: as §1

SMILES: O=c1cc(N2CCOCC2)oc2c(-c3cccc4c3sc3ccccc34)cccc12 + CS(=O)(=O)N1CCN(Cc2cc3nc(-c4cccc5[nH]ncc45)nc(N4CCOCC4)c3s2)CC1 [Pictilisib] (partner 1 µM)
- relative viability (EMC-BAC-2; first compound 0.01 µM): 0.372
- relative viability (EMC-BAC-2; first compound 0.03162 µM): 0.518
- relative viability (EMC-BAC-2; first compound 0.1 µM): 0.559
- relative viability (EMC-BAC-2; first compound 0.3162 µM): 0.574
- relative viability (EMC-BAC-2; first compound 1 µM): 0.517
- relative viability (SK-MES-1; first compound 0.01 µM): 0.327
- relative viability (SK-MES-1; first compound 0.03162 µM): 0.314
- relative viability (SK-MES-1; first compound 0.1 µM): 0.396
- relative viability (SK-MES-1; first compound 0.3162 µM): 0.31
- relative viability (SK-MES-1; first compound 1 µM): 0.362
- relative viability (NCI-H3122; first compound 0.01 µM): 0.623
- relative viability (NCI-H3122; first compound 0.03162 µM): 0.553
- relative viability (NCI-H3122; first compound 0.1 µM): 0.651
- relative viability (NCI-H3122; first compound 0.3162 µM): 0.552
- relative viability (NCI-H3122; first compound 1 µM): 0.57
- relative viability (NCI-H727; first compound 0.01 µM): 0.587
- relative viability (NCI-H727; first compound 0.03162 µM): 0.355
- relative viability (NCI-H727; first compound 0.1 µM): 0.467
- relative viability (NCI-H727; first compound 0.3162 µM): 0.39
- relative viability (NCI-H727; first compound 1 µM): 0.266
- relative viability (ABC-1; first compound 0.01 µM): 0.698
- relative viability (ABC-1; first compound 0.03162 µM): 0.834
- relative viability (ABC-1; first compound 0.1 µM): 0.745
- relative viability (ABC-1; first compound 0.3162 µM): 0.888
- relative viability (ABC-1; first compound 1 µM): 0.755
- relative viability (NCI-H322M; first compound 0.01 µM): 0.578
- relative viability (NCI-H322M; first compound 0.03162 µM): 0.525
- relative viability (NCI-H322M; first compound 0.3162 µM): 0.471
- relative viability (NCI-H322M; first compound 1 µM): 0.507
- relative viability (NCI-H2009; first compound 0.01 µM): 0.802
- relative viability (NCI-H2009; first compound 0.03162 µM): 0.864
- relative viability (NCI-H2009; first compound 0.1 µM): 0.735
- relative viability (NCI-H2009; first compound 0.3162 µM): 0.796
- relative viability (NCI-H2009; first compound 1 µM): 0.813
- relative viability (LK-2; first compound 0.01 µM): 0.676
- relative viability (LK-2; first compound 0.03162 µM): 0.562
- relative viability (LK-2; first compound 0.1 µM): 0.615
- relative viability (LK-2; first compound 0.3162 µM): 0.578
- relative viability (LK-2; first compound 1 µM): 0.64
- relative viability (HOP-62; first compound 0.01 µM): 0.755
- relative viability (HOP-62; first compound 0.03162 µM): 0.696
- relative viability (HOP-62; first compound 0.1 µM): 0.594
- relative viability (HOP-62; first compound 0.3162 µM): 0.649
- relative viability (HOP-62; first compound 1 µM): 0.697
- relative viability (NCI-H1944; first compound 0.01 µM): 0.349
- relative viability (NCI-H1944; first compound 0.03162 µM): 0.336
- relative viability (NCI-H1944; first compound 0.1 µM): 0.349
- relative viability (NCI-H1944; first compound 0.3162 µM): 0.348
- relative viability (NCI-H1944; first compound 1 µM): 0.35
- relative viability (NCI-H2228; first compound 0.03162 µM): 0.351
- relative viability (NCI-H2228; first compound 0.1 µM): 0.668
- relative viability (NCI-H2228; first compound 0.3162 µM): 0.39
- relative viability (NCI-H2228; first compound 1 µM): 0.512
- relative viability (A-427; first compound 0.01 µM): 0.902
- relative viability (A-427; first compound 0.03162 µM): 0.8
- relative viability (A-427; first compound 0.1 µM): 0.68
- relative viability (A-427; first compound 0.3162 µM): 0.635
- relative viability (A-427; first compound 1 µM): 0.742
- relative viability (SW 1573; first compound 0.01 µM): 0.549
- relative viability (SW 1573; first compound 0.03162 µM): 0.489
- relative viability (SW 1573; first compound 0.1 µM): 0.48
- relative viability (SW 1573; first compound 0.3162 µM): 0.452
- relative viability (SW 1573; first compound 1 µM): 0.471
- relative viability (NCI-H2170; first compound 0.01 µM): 0.299
- relative viability (NCI-H2170; first compound 0.03162 µM): 0.331
- relative viability (NCI-H2170; first compound 0.1 µM): 0.369
- relative viability (NCI-H2170; first compound 0.3162 µM): 0.375
- relative viability (NCI-H2170; first compound 1 µM): 0.344
- relative viability (NCI-H596; first compound 0.01 µM): 0.442
- relative viability (NCI-H596; first compound 0.03162 µM): 0.39
- relative viability (NCI-H596; first compound 0.1 µM): 0.38
- relative viability (NCI-H596; first compound 0.3162 µM): 0.395
- relative viability (NCI-H596; first compound 1 µM): 0.38
- relative viability (PC-3 [JPC-3]; first compound 0.01 µM): 0.751
- relative viability (PC-3 [JPC-3]; first compound 0.03162 µM): 0.747
- relative viability (PC-3 [JPC-3]; first compound 0.1 µM): 0.711
- relative viability (PC-3 [JPC-3]; first compound 0.3162 µM): 0.727
- relative viability (PC-3 [JPC-3]; first compound 1 µM): 0.739
- relative viability (LXF-289; first compound 0.01 µM): 0.877
- relative viability (LXF-289; first compound 0.03162 µM): 0.815
- relative viability (LXF-289; first compound 0.1 µM): 0.881
- relative viability (LXF-289; first compound 0.3162 µM): 0.754
- relative viability (LXF-289; first compound 1 µM): 0.843
- relative viability (NCI-H1792; first compound 0.01 µM): 0.286
- relative viability (NCI-H1792; first compound 0.03162 µM): 0.264
- relative viability (NCI-H1792; first compound 0.1 µM): 0.244
- relative viability (NCI-H1792; first compound 0.3162 µM): 0.274
- relative viability (NCI-H1792; first compound 1 µM): 0.252
- relative viability (HARA; first compound 0.01 µM): 0.315
- relative viability (HARA; first compound 0.03162 µM): 0.381
- relative viability (HARA; first compound 0.1 µM): 0.435
- relative viability (HARA; first compound 0.3162 µM): 0.362
- relative viability (HARA; first compound 1 µM): 0.457
- relative viability (NCI-H1993; first compound 0.01 µM): 0.937
- relative viability (NCI-H1993; first compound 0.03162 µM): 0.945
- relative viability (NCI-H1993; first compound 0.1 µM): 0.812
- relative viability (NCI-H1993; first compound 0.3162 µM): 0.759
- relative viability (NCI-H1993; first compound 1 µM): 0.799
